The data set in a line: Metribuzin solubility in salt solutions. The format is physicochemical. As to conditions: ammonium sulfate, ammonium acetate and potassium citrate tribasic monohydrate solutions; FIG. 1. As for the experimental part:
Metribuzin is partially soluble in water. Because of its partial solubility metribuzin grows crystals in aqueous solutions. It is a discovery of the present invention that, if water solubility of metribuzin is lowered, then crystal growth is inhibited or reduced. To determine if salts could lower the water solubility of metribuzin, metribuzin was added to the saturation point to several concentrations of ammonium sulfate, ammonium acetate and potassium citrate tribasic monohydrate solutions. Results can be seen in FIG. 1.

Take `CSc1nnc(C(C)(C)C)c(=O)n1N` [metribuzin, Metribuzin]: the “water solubility of metribuzin versus salt concentration” value was “negatively correlated”.

These data come from US12708113B2, “Herbicidal compositions and methods of use thereof” (Valent U.S.A. LLC, priority 2018, dated 2026).
